{"source": "patent US20040106877A1", "about": "“Method and device for determining state of skin surface” (priority 2000, published 2004)", "assay_type_in_all_cases": "cell-based", "key": {"[1]": {"test_system": "skin sections of a hairless mouse"}, "[2]": {"test_system": "skin sections of a hairless mouse", "assay": "Skin surface potential difference relative to culture solution, capsaicin coated on the skin surface", "conditions": "FIG. 6", "description": "In a second method, upon measuring the skin surface condition of the first method, stimulation is imparted further to the skin model comprising a skin section and a culture solution to measure aforementioned potential difference. This potential difference changes as stimulation is imparted. This change means that a stream of ions has occurred in the epidermis. The direction of a stream of ions differs depending on stimulation. When there is a change compared to the value of untreated skin, it is interpreted that stimulation producing mobility of ions is imparted to the epidermis. The degree of skin stimulation is measured from the changed value. Upon imparting stimulation, the place of stimulation may be on skin surface or culture solution. In the case of skin surface, examples of methods for imparting stimulation include coating skin with a stimulating substance and physical stimulation. Also, in the case of culture solution, the method used is addition of stimulating substances. Examples of these stimulating substances include neuropeptide, histamine, surfactant, organic acid, and capsaicin. […] In addition, examples of said physical stimulation include barrier destruction by a cellophane adhesive tape and the like."}, "[3]": {"test_system": "skin sections of a hairless mouse", "assay": "Skin surface potential difference relative to culture solution, substance P (SP) stimulation", "conditions": "FIG. 3"}}, "note": "Read-outs that look alike come from different tables or passages of the source. No end group written: not given here.", "data": [{"molecule": "Nc1ccncc1", "note": "[AP, aminopyridine]", "values": [{"measurement": "inhibition of the tape-stripping-induced change in potential difference", "setting": "[1]; drug added to culture solution after tape stripping, average of five measurements, FIG. 4, FIG. 5", "result": "reduces the change in potential difference"}]}, {"molecule": "NC1=N[C@H](O)[C@H]2[C@H]3O[C@]4(O)O[C@@H]([C@@H](O)[C@@]2(N1)[C@@H]4O)[C@]3(O)CO", "note": "[TTX, tetrodotoxin]", "values": [{"measurement": "inhibition of the tape-stripping-induced change in potential difference", "setting": "[1]", "result": "does not inhibit the change in a potential difference"}]}, {"molecule": "COc1cc(CNC(=O)CCCC/C=C/C(C)C)ccc1O", "note": "[capsaicin]", "values": [{"measurement": "time of maximum change in potential difference after coating", "setting": "[2]; capsaicin coated on skin surface", "result": 0.5, "unit": "h"}, {"measurement": "change in potential difference of the skin surface relative to culture solution after stimulating substance", "setting": "[2]; capsaicin coated on skin surface, compared with non-treated skin surface (control), average of five measurements", "result": "a rapid change in potential difference"}]}, {"molecule": "Oc1cc2c(cc1O)CN(C(=S)NCCc1ccc(Cl)cc1)CCC2", "note": "[capsazepine]", "values": [{"measurement": "inhibition of the capsaicin-induced change in potential difference", "setting": "[2]; drug coated on skin surface after capsaicin", "result": "the range of change in potential difference is reduced"}]}, {"molecule": "[D-Arg1, D-Trp7, 9, Leu11]-SubstanceP [SP antagonist]", "values": [{"measurement": "inhibition of the SP-induced change in potential difference", "setting": "[3]; drug added to culture solution before adding SP, observed for 2 hours", "result": "no rapid and significant change in potential difference is produced"}]}, {"molecule": "substance P (RPKPQQFFGLM; ends and bridges not checked; UniProt P20366 58-68, looked up) [SP, neuropeptide used as a stimulating substance]", "values": [{"measurement": "time after addition when the potential difference returns to a value close to control", "setting": "[3]; SP added to culture solution", "result": 2, "unit": "h"}, {"measurement": "time of peak of the potential difference change after addition", "setting": "[3]; SP added to culture solution", "result": 1, "unit": "h"}, {"measurement": "change in potential difference of the skin surface relative to culture solution after stimulating substance", "setting": "[3]; SP added to culture solution, compared with non-treated skin surface (control), average of five measurements", "result": "a rapid change in a potential difference is produced"}]}]}
